{"source": "patent US20060069132A1", "about": "“Azolecarboxamide herbicides” (priority 2004, published 2006)", "key": {"barnyardgrass [1]": {"system": "barnyardgrass", "experiment": "Test B pre-/postemergence herbicide test", "assay_type": "in vivo, Echinochloa crus-galli", "conditions": "for Barnyardgrass plant response rating: postemergence, visual rating, scale 0 (no effect) to 100 (complete control)", "method_in_brief": "(§1)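 Formulation: non-phytotoxic solvent mix with surfactant. Timing: preemergence on seed and postemergence on 2–18 cm plants, applied concurrently. Readout after 13–15 d greenhouse: visual 0–100 control rating against controls.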"}, "Surinam grass": {"system": "Surinam grass", "experiment": "Test B pre-/postemergence herbicide test", "assay_type": "in vivo, Urochloa decumbens", "conditions": "for Surinam Grass plant response rating: postemergence, visual rating, scale 0 (no effect) to 100 (complete control)", "method_in_brief": "(§2)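 Test chemicals in a non-phytotoxic solvent mixture with surfactant were applied preemergence to seeded species and postemergence to plants 2-18 cm tall (1- to 4-leaf stage); rice and barnyardgrass were also tested in a flooded paddy at the 2-leaf stage. Visual rating versus controls after 13-15 days in greenhouse, scale 0 (no effect) to 100 (complete control).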"}, "cocklebur": {"system": "cocklebur", "experiment": "Test B pre-/postemergence herbicide test", "assay_type": "in vivo, Xanthium strumarium", "conditions": "for Cocklebur plant response rating: postemergence, visual rating, scale 0 (no effect) to 100 (complete control)", "method_in_brief": "as §1"}, "corn": {"system": "corn", "experiment": "Test B pre-/postemergence herbicide test", "assay_type": "in vivo, Zea mays", "conditions": "for Corn plant response rating: postemergence, visual rating, scale 0 (no effect) to 100 (complete control)", "method_in_brief": "as §2"}, "large crabgrass": {"system": "large crabgrass", "experiment": "Test B pre-/postemergence herbicide test", "assay_type": "in vivo, Digitaria sanguinalis", "conditions": "for Crabgrass, Large plant response rating: postemergence, visual rating, scale 0 (no effect) to 100 (complete control)", "method_in_brief": "as §2"}, "giant foxtail": {"system": "giant foxtail", "experiment": "Test B pre-/postemergence herbicide test", "assay_type": "in vivo, Setaria faberi", "conditions": "for Foxtail, Giant plant response rating: postemergence, visual rating, scale 0 (no effect) to 100 (complete control)", "method_in_brief": "as §2"}, "lambsquarters": {"system": "lambsquarters", "experiment": "Test B pre-/postemergence herbicide test", "assay_type": "in vivo, Chenopodium album", "conditions": "for Lambsquarters plant response rating: postemergence, visual rating, scale 0 (no effect) to 100 (complete control)", "method_in_brief": "as §2"}, "morningglory": {"system": "morningglory", "experiment": "Test B pre-/postemergence herbicide test", "assay_type": "in vivo, Ipomoea coccinea", "conditions": "for Morningglory plant response rating: postemergence, visual rating, scale 0 (no effect) to 100 (complete control)", "method_in_brief": "as §1"}, "pigweed": {"system": "pigweed", "experiment": "Test B pre-/postemergence herbicide test", "assay_type": "in vivo, Amaranthus retroflexus", "conditions": "for Pigweed plant response rating: postemergence, visual rating, scale 0 (no effect) to 100 (complete control)", "method_in_brief": "as §2"}, "rice [2]": {"system": "rice", "experiment": "Test B pre-/postemergence herbicide test", "assay_type": "in vivo, Oryza sativa", "conditions": "preemergence", "text": "Seeds selected from barnyardgrass (Echinochloa crus-galli (L.) Beauv.), Surinam grass (Urochloa decumbens (Staph) R. D. Webster, previously named Brachiaria decumbens Stapf), cocklebur (Xanthium strumarium L.), corn (Zea mays L.), large crabgrass (Digitaria sanguinalis (L.) Scop.), giant foxtail (Setaria faberi Herim.), lambsquarters (Chenopodium album L.), morningglory (Ipomoea coccinea L.), pigweed (Amaranthus retroflexus L.), rice (Oryza sativa L.) and velvetleaf (Abutilon theophrasti Medik.) were planted and treated preemergence with test chemicals formulated in a non-phytotoxic solvent mixture which included a surfactant.\nAt the same time, plants selected from these crop and weed species and also blackgrass (Alopecurus myosuroides Huds.), wheat (Triticum aestivum L.) and wild oat (Avena fatua L.) were treated with postemergence applications of test chemicals formulated in the same manner. Plants ranged in height from 2 to 18 cm (1- to 4-leaf stage) for postemergence treatments. Plant species in the flooded paddy test consisted of rice (Oryza sativa L.), small flower umbrella sedge (Cyperus difformis L.), ducksalad (Heteranthera limosa (Sw.) Willd.) and barnyardgrass (Echinochloa crus-galli (L.) Beauv.) grown to the 2-leaf stage for testing. Treated plants and controls were maintained in a greenhouse for 13 to 15 days, after which time all species were compared to controls and visually evaluated. Plant response ratings, summarized in Table B, are based on a scale of 0 to 100 where 0 is no effect and 100 is complete control. A dash (-) response means no test result."}, "velvetleaf": {"system": "velvetleaf", "experiment": "Test B pre-/postemergence herbicide test", "assay_type": "in vivo, Abutilon theophrasti", "conditions": "for Velvetleaf plant response rating: postemergence, visual rating, scale 0 (no effect) to 100 (complete control)", "method_in_brief": "as §2"}, "blackgrass": {"system": "blackgrass", "experiment": "Test B postemergence herbicide test", "assay_type": "in vivo, Alopecurus myosuroides", "conditions": "postemergence, visual rating, scale 0 (no effect) to 100 (complete control)", "method_in_brief": "(§3)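 Scale 0–100: zero equals no visible effect, 100 complete control, judged by eye relative to controls. Timing: 13 to 15 days in greenhouse post-treatment. Growth stage at spraying: two leaves (paddy) or one to four leaves, 2–18 cm (postemergence).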"}, "wheat": {"system": "wheat", "experiment": "Test B postemergence herbicide test", "assay_type": "in vivo, Triticum aestivum", "design": "key to Wheat plant response rating: 0 = no effect, 100 = complete control", "conditions": "postemergence, visual rating, scale 0 (no effect) to 100 (complete control)", "method_in_brief": "as §3"}, "wild oat": {"system": "wild oat", "experiment": "Test B postemergence herbicide test", "assay_type": "in vivo, Avena fatua", "conditions": "postemergence, visual rating, scale 0 (no effect) to 100 (complete control)", "method_in_brief": "as §3"}, "rice [3]": {"system": "rice", "experiment": "Test B flooded paddy test", "assay_type": "in vivo, Oryza sativa", "conditions": "1000 g ai/ha, visual rating, scale 0 to 100 (0 no effect, 100 complete control), 13 to 15 days", "method_in_brief": "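Paddy species grown to the 2-leaf stage under flooding; blackgrass sprayed postemergence at 2–18 cm (1- to 4-leaf stage). Plants kept in a greenhouse for 13 to 15 days, then visually rated against controls on 0 (no effect) to 100 (complete control).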"}, "[4]": {"system": "small flower umbrella sedge", "experiment": "Test B flooded paddy test", "assay_type": "in vivo, Cyperus difformis", "conditions": "1000 g ai/ha, visual rating, scale 0 to 100 (0 no effect, 100 complete control), 13 to 15 days", "method_in_brief": "as §3"}, "ducksalad": {"system": "ducksalad", "experiment": "Test B flooded paddy test", "assay_type": "in vivo, Heteranthera limosa", "conditions": "1000 g ai/ha, visual rating, scale 0 to 100 (0 no effect, 100 complete control), 13 to 15 days", "method_in_brief": "as §3"}, "barnyardgrass [5]": {"system": "barnyardgrass", "experiment": "Test B flooded paddy test", "assay_type": "in vivo, Echinochloa crus-galli", "conditions": "1000 g ai/ha, visual rating, scale 0 to 100 (0 no effect, 100 complete control), 13 to 15 days", "method_in_brief": "as §3"}, "[6]": {"conditions": "125 g ai/ha, 0 = no effect, 100 = complete control, preemergence"}, "[7]": {"conditions": "500 g ai/ha, visual rating 0-100, 0 no effect, 100 complete control, preemergence"}}}
{"smiles": "CCNC(=O)c1cccc(NC(=O)c2nn(C(C)(C)C)cc2C(F)(F)F)c1", "note": "[Compound 170]", "values": [{"measurement": "Barnyardgrass plant response rating (0 to 100 scale)", "setting": "barnyardgrass [1]; [6]", "value": 0}, {"measurement": "Plant response rating, Barnyardgrass", "setting": "barnyardgrass [1]; [7]", "value": 30}, {"measurement": "Barnyardgrass plant response rating", "setting": "barnyardgrass [1]; 125 g ai/ha", "value": 0}, {"measurement": "Barnyardgrass plant response rating", "setting": "barnyardgrass [1]; 500 g ai/ha", "value": 10}, {"measurement": "Surinam Grass plant response rating (0 to 100 scale)", "setting": "Surinam grass; [6]", "value": 0}, {"measurement": "Plant response rating, Surinam Grass", "setting": "Surinam grass; [7]", "value": 30}, {"measurement": "Surinam Grass plant response rating", "setting": "Surinam grass; 125 g ai/ha", "value": 10}, {"measurement": "Surinam Grass plant response rating", "setting": "Surinam grass; 500 g ai/ha", "value": 10}, {"measurement": "Cocklebur plant response rating (0 to 100 scale)", "setting": "cocklebur; [6]", "value": 0}, {"measurement": "Plant response rating, Cocklebur", "setting": "cocklebur; [7]", "value": 0}, {"measurement": "Cocklebur plant response rating", "setting": "cocklebur; 125 g ai/ha", "value": 0}, {"measurement": "Cocklebur plant response rating", "setting": "cocklebur; 500 g ai/ha", "value": 0}, {"measurement": "Corn plant response rating (0 to 100 scale)", "setting": "corn; [6]", "value": 0}, {"measurement": "Plant response rating, Corn", "setting": "corn; [7]", "value": 0}, {"measurement": "Corn plant response rating", "setting": "corn; 125 g ai/ha", "value": 0}, {"measurement": "Corn plant response rating", "setting": "corn; 500 g ai/ha", "value": 10}, {"measurement": "Crabgrass, Large plant response rating (0 to 100 scale)", "setting": "large crabgrass; [6]", "value": 20}, {"measurement": "Plant response rating, Crabgrass, Large", "setting": "large crabgrass; [7]", "value": 80}, {"measurement": "Crabgrass, Large plant response rating", "setting": "large crabgrass; 125 g ai/ha", "value": 10}, {"measurement": "Crabgrass, Large plant response rating", "setting": "large crabgrass; 500 g ai/ha", "value": 10}, {"measurement": "Foxtail, Giant plant response rating (0 to 100 scale)", "setting": "giant foxtail; [6]", "value": 0}, {"measurement": "Plant response rating, Foxtail, Giant", "setting": "giant foxtail; [7]", "value": 20}, {"measurement": "Foxtail, Giant plant response rating", "setting": "giant foxtail; 125 g ai/ha", "value": 0}, {"measurement": "Foxtail, Giant plant response rating", "setting": "giant foxtail; 500 g ai/ha", "value": 10}, {"measurement": "Lambsquarters plant response rating (0 to 100 scale)", "setting": "lambsquarters; [6]", "value": 0}, {"measurement": "Plant response rating, Lambsquarters", "setting": "lambsquarters; [7]", "value": 80}, {"measurement": "Lambsquarters plant response rating", "setting": "lambsquarters; 125 g ai/ha", "value": 60}, {"measurement": "Lambsquarters plant response rating", "setting": "lambsquarters; 500 g ai/ha", "value": 70}, {"measurement": "Morningglory plant response rating (0 to 100 scale)", "setting": "morningglory; [6]", "value": 0}, {"measurement": "Plant response rating, Morningglory", "setting": "morningglory; [7]", "value": 10}, {"measurement": "Morningglory plant response rating", "setting": "morningglory; 125 g ai/ha", "value": 30}, {"measurement": "Morningglory plant response rating", "setting": "morningglory; 500 g ai/ha", "value": 80}, {"measurement": "Pigweed plant response rating (0 to 100 scale)", "setting": "pigweed; [6]", "value": 0}, {"measurement": "Plant response rating, Pigweed", "setting": "pigweed; [7]", "value": 90}, {"measurement": "Pigweed plant response rating", "setting": "pigweed; 125 g ai/ha", "value": 30}, {"measurement": "Pigweed plant response rating", "setting": "pigweed; 500 g ai/ha", "value": 50}, {"measurement": "Rice plant response rating (0 to 100 scale)", "setting": "rice [2]; 125 g ai/ha, 0 = no effect, 100 = complete control", "value": 0}, {"measurement": "Plant response rating, Rice", "setting": "rice [2]; 500 g ai/ha, visual rating 0-100, 0 no effect, 100 complete control", "value": 0}, {"measurement": "Velvetleaf plant response rating (0 to 100 scale)", "setting": "velvetleaf; [6]", "value": 0}, {"measurement": "Plant response rating, Velvetleaf", "setting": "velvetleaf; [7]", "value": 20}, {"measurement": "Velvetleaf plant response rating", "setting": "velvetleaf; 125 g ai/ha", "value": 10}, {"measurement": "Velvetleaf plant response rating", "setting": "velvetleaf; 500 g ai/ha", "value": 20}, {"measurement": "Blackgrass plant response rating", "setting": "blackgrass; 125 g ai/ha", "value": 0}, {"measurement": "Blackgrass plant response rating", "setting": "blackgrass; 500 g ai/ha", "value": 0}, {"measurement": "Wheat plant response rating", "setting": "wheat; 125 g ai/ha", "value": 0}, {"measurement": "Wheat plant response rating", "setting": "wheat; 500 g ai/ha", "value": 0}, {"measurement": "Oat, Wild plant response rating", "setting": "wild oat; 125 g ai/ha", "value": 10}, {"measurement": "Oat, Wild plant response rating", "setting": "wild oat; 500 g ai/ha", "value": 10}, {"measurement": "Rice plant response rating", "setting": "rice [3]", "value": 20}, {"measurement": "Sedge, Umbrella plant response rating", "setting": "[4]", "value": 20}, {"measurement": "Ducksalad plant response rating", "setting": "ducksalad", "value": 0}, {"measurement": "Barnyardgrass plant response rating", "setting": "barnyardgrass [5]", "value": 10}]}
